From US20110184004A1, “PREDICTIVE MARKER FOR EGFR INHIBITOR TREATMENT” (priority 2007, published 2011)
Entries after “also recorded” stand apart in the source; their conditions may differ.

What was measured:
[1] = tested on: advanced NSCLC; assay: Open-label Phase II predictive marker study of Tarceva monotherapy, response by RECIST; format: in vivo, human; conditions: 102 analysed patients, oral 150 mg/day
Procedure: Clinical benefit was defined as either having an objective response, or disease stabilization for ≧12 weeks.
Based on the experience from the BR.21 study, benefiting population was defined as either having objective response, or disease stabilization for 12 weeks. Clinical and microarray datasets were analyzed according to a pre-defined statistical plan.
Overview of Study Design and Dosing Regimen This was an open-label, predictive marker identification Phase II study. The study was conducted in approximately 26 sites in about 12 countries. 264 patients with advanced NSCLC following failure of at least one prior chemotherapy regimen were enrolled over a 12 month period. […] Dose reductions were permitted based on tolerability to drug therapy. Clinical and laboratory parameters were assessed to evaluate disease control and toxicity. Treatment continued until disease progression, unacceptable toxicity or death. The study design is depicted in FIG. 1.
The RECIST (Uni-dimensional Tumour Measurement) criteria were used to evaluate response. These criteria can be found under the following link: http://www.eortc.be/recist/
Note that: To be assigned a status of CR or PR, changes in tumour measurements must be confirmed by repeated assessments at least 4 weeks apart at any time during the treatment period.
In the case of SD, follow-up measurements must have met the SD criteria at least once after study entry at a minimum interval of 6 weeks.
In the case of maintained SD, follow-up measurements must have met the SD criteria at least once after study entry with maintenance duration of at least 12 weeks.
Based on these parameters, data from 20 arrays were excluded from analysis. Thus data from a total of 102 arrays representing 102 patients was included in the analysis.

[2] = patients with cancer, 150 mg/day dose; 500 ng/ml is the average plasma concentration targeted for clinical efficacy; cited from earlier work
[3] = tested on: epithelial tumours; conditions: cited from earlier work
[4] = tested on: NSCLC; conditions: NSCLC patients for whom standard therapy for advanced disease has failed; single agent versus placebo; 150 mg/day; cited from earlier work
[5] = tested on: NSCLC; conditions: cited from earlier work
[6] = tested on: NSCLC; conditions: second line therapy of NSCLC; cited from earlier work
[7] = advanced NSCLC after failure of at least one chemotherapy, RECIST
[8] = clinical benefit = objective response or disease stabilization for ≧12 weeks

With `C#Cc1cccc(Nc2ncnc3cc(OCCOC)c(OCCOC)cc23)c1` [Tarceva, erlotinib] the “Best Response PD” value [1, 7] was 49 (48.0%) n (%), the “Best Response PR” value [1, 7] was 6 (5.9%) n (%) and the “Best Response SD” value [1, 7] was 31 (30.4%) n (%). For the same compound, the “Clinical Benefit NO” value [1, 8] was 81 (79.4%) n (%), the “Clinical Benefit YES” value [1, 8] was 21 (20.6%) n (%) and the “Drug levels in plasma” value [2] was over 500 ng/mL. For the same compound, the Safety and tolerability ([3]; early clinical data, doses that provide the targeted effective concentration) was “safe and generally well tolerated”, the “Clinical activity (remissions)” value ([3]; previously treated patients with head and neck cancer and NSCLC) was “capable of inducing durable partial remissions” and the Survival [4] was “significantly prolongs and improves the survival; also recorded: survival benefit”.
In the case of `CC(=O)O[C@@]12CO[C@@H]1C[C@H](O)[C@@]1(C)C(=O)[C@H](O)C3=C(C)[C@@H](OC(=O)[C@H](O)[C@@H](NC(=O)OC(C)(C)C)c4ccccc4)C[C@@](O)([C@@H](OC(=O)c4ccccc4)[C@H]21)C3(C)C` [docetaxel], the “Survival, second line” value ([5]; NSCLC after failure of cisplatin-based first-line regimens, all ages, ECOG performance status 0, 1 or 2, versus best supportive care) is given as “improved survival” and the “Survival, third-line treatment or beyond” value ([5]; patients receiving docetaxel as third-line treatment or beyond) is given as “no prolongation of survival”.
For `Nc1nc2[nH]cc(CCc3ccc(C(=O)N[C@@H](CCC(=O)O)C(=O)O)cc3)c2c(=O)[nH]1` [pemetrexed], the “Efficacy compared with docetaxel” value [6] is given as “clinically equivalent efficacy” and the “Side effects compared with docetaxel” value [6] is given as “significantly fewer side effects”.
